Data published in patent US6448261B1, “Arylamino fused pyridines” (Bristol-Myers Squibb Pharma Company, priority 1996, dated 2002).

SMILES	melting point
CCC(COC)n1nnc2c(Nc3ccc(C(C)C)cc3Br)nc(C)nc21 (racemic) [Example 9, (+/−)-N-[2-bromo-4-(1-methylethyl)phenyl]-3-[1-(1-methoxymethyl)propyl]-5-methyl-3H-1,2,3-triazolo[4,5-d]pyrimidin-7-amine]	115 to 116 °C
CCCCC(CC)n1nnc2c(Nc3ccc(C(C)C)cc3Br)nc(C)nc21 (racemic) [Example 13, (+/−)-N-[2-bromo-4-(1-methylethyl)phenyl]-3-[1-ethylpentyl]-5-methyl-3H-1,2,3-triazolo[4,5-d]pyrimidin-7-amine]	137 to 138 °C
CCCC(CC)n1nnc2c(Nc3ccc(C(C)C)cc3Br)nc(C)nc21 (racemic) [Example 17, (+/−)-N-[2-bromo-4-(1-methylethyl)phenyl]-3-[1-ethylbutyl]-5-methyl-3H-1,2,3-triazolo[4,5-d]pyrimidin-7-amine]	154 to 155 °C
CCC(COC)n1nnc2c(Nc3ccc(C(C)=O)cc3Br)nc(C)nc21 (racemic) [Example 27, (+/−)-N-(4-acetyl-2-bromophenyl)-3-[1-(1-methoxymethyl)propyl]-5-methyl-3H-1,2,3-triazolo[4,5-d]pyrimidin-7-amine]	133 to 134 °C
CCC(COC)n1nnc2c(Nc3c(Br)cc(OC)cc3OC)nc(C)nc21 (racemic) [Example 30, (+/−)-N-(2-bromo-4,6-dimethoxyphenyl)-3-[1-(1-methoxymethyl)propyl]-5-methyl-3H-1,2,3-triazolo[4,5-d]pyrimidin-7-amine]	154 to 155 °C
CCC(COC)n1nnc2c(Nc3c(Cl)cc(OC)cc3OC)nc(C)nc21 (racemic) [Example 31, (+/−)-N-(2-chloro-4,6-dimethoxyphenyl)-3-[1-(1-methoxymethyl)propyl]-5-methyl-3H-1,2,3-triazolo[4,5-d]pyrimidin-7-amine]	149 to 150 °C
CCC(COC)n1nnc2c(Nc3c(C)cc(C)cc3C)nc(C)nc21 (racemic) [Example 32, (+/−)-3-[1-(1-methoxymethyl)propyl]-5-methyl-N-(2,4,6-trimethylphenyl)-3H-1,2,3-triazolo[4,5-d]pyrimidin-7-amine]	144.5 to 147 °C
CCCC(CC)n1nnc2c(Nc3c(C)cc(C)cc3C)nc(C)nc21 (racemic) [Example 35, (+/−)-3-[1-(1-ethyl)butyl]-5-methyl-N-(2,4,6-trimethylphenyl)-3H-1,2,3-triazolo[4,5-d]pyrimidin-7-amine]	170.5 to 172 °C
CCCCC(CC)n1nnc2c(Nc3c(C)cc(C)cc3C)nc(C)nc21 (racemic) [Example 36, (+/−)-3-[1-(1-ethyl)pentyl]-5-methyl-N-(2,4,6-trimethylphenyl)-3H-1,2,3-triazolo[4,5-d]pyrimidine-7-amine]	129 to 130.5 °C
CCC(COC)n1nnc2c(Nc3ccc(Br)cc3C)nc(C)nc21 (racemic) [Example 42, (+/−)-N-(4-bromo-2-methylphenyl)-3-[1-(1-methoxymethyl)propyl]-5-methyl-3H-1,2,3-triazolo[4,5-d]pyrimidin-7-amine]	144.5 to 146 °C
CCCCC(CC)n1nnc2c(Nc3ccc(C(C)C)cc3Br)nc(C)cc21 (racemic) [Example 226, (+/−)-N-[2-bromo-4-(1-methylethyl)phenyl]-1-(1-ethylpentyl)-6-methyl-1H-1,2,3-triazolo[4,5-c]pyridin-4-amine]	73 to 74 °C
CCCCC(CC)n1nnc2c(Nc3c(Br)cc(OC)cc3OC)nc(C)cc21 (racemic) [Example 227, (+/−)-N-(2-bromo-4,6-dimethoxyphenyl)-1-(1-ethylpentyl)-6-methyl-1H-1,2,3-triazolo[4,5-c]pyridin-4-amine]	127 to 128 °C
CCCCC(CC)n1nnc2c(Nc3c(Cl)cc(OC)cc3OC)nc(C)cc21 (racemic) [Example 228, (+/−)-N-(2-chloro-4,6-dimethoxyphenyl)-1-(1-ethylpentyl)-6-methyl-1H-1,2,3-triazolo[4,5-c]pyridin-4-amine]	155 to 156 °C
CCCn1nnc2c(Nc3ccc(C(C)C)cc3Br)nc(C)nc21 [Example 1, N-[2-bromo-4-(1-methylethyl)phenyl]-5-methyl-3-propyl-3H-1,2,3-triazolo[4,5-d]pyrimidin-7-amine]	80 to 81 °C
COCCn1nnc2c(Nc3ccc(C(C)C)cc3Br)nc(C)nc21 [Example 6, N-[2-bromo-4-(1-methylethyl)phenyl]-3-(2-methoxyethyl)-5-methyl-3H-1,2,3-triazolo[4,5-d]pyrimidin-7-amine]	94 to 95 °C
COC[C@H](Cc1ccccc1)n1nnc2c(Nc3ccc(C(C)C)cc3Br)nc(C)nc21 [Example 11, (S)-N-[2-bromo-4-(1-methylethyl)phenyl]-3-[1-(1-methoxymethyl)-2-phenylethyl]-5-methyl-3H-1,2,3-triazolo[4,5-d]pyrimidin-7-amine]	67 to 69 °C
CCCC(CCC)n1nnc2c(Nc3ccc(C(C)C)cc3Br)nc(C)nc21 [Example 15, N-[2-bromo-4-(1-methylethyl)phenyl]-3-[1-propylbutyl]-5-methyl-3H-1,2,3-triazolo[4,5-d]pyrimidin-7-amine]	69 to 70 °C
CCCCC(CCCC)n1nnc2c(Nc3ccc(C(C)C)cc3Br)nc(C)nc21 [Example 16, N-[2-bromo-4-(1-methylethyl)phenyl]-3-[1-butylpentyl]-5-methyl-3H-1,2,3-triazolo[4,5-d]pyrimidin-7-amine]	132 to 133 °C
CCC(CC)n1nnc2c(Nc3ccc(C(C)C)cc3Br)nc(C)nc21 [Example 19, N-[2-bromo-4-(1-methylethyl)phenyl]-3-[1-ethylpropyl]-5-methyl-3H-1,2,3-triazolo[4,5-d]pyrimidin-7-amine]	171 to 172 °C
CCCC(CCC)n1nnc2c(Nc3c(C)cc(C)cc3Br)nc(C)nc21 [Example 21, N-(2-bromo-4,6-dimethylphenyl)-5-methyl-3-[1-propylbutyl]-3H-1,2,3-triazolo[4,5-d]pyrimidin-7-amine]	141 to 142 °C
CCC(CC)n1nnc2c(Nc3ccc(C(C)=O)cc3Br)nc(C)nc21 [Example 26, N-(4-acetyl-2-bromophenyl)-3-[1-ethylpropyl]-5-methyl-3H-1,2,3-triazolo[4,5-d]pyrimidin-7-amine]	153 to 154 °C
CCC(CC)n1nnc2c(Nc3c(C)cc(C)cc3C)nc(C)nc21 [Example 34, 3-[1-(1-ethyl)propyl]-5-methyl-N-(2,4,6-trimethylphenyl)-3H-1,2,3-triazolo[4,5-d]pyrimidin-7-amine]	160 to 162 °C
CCCC(CCC)n1nnc2c(Nc3c(C)cc(C)cc3C)nc(C)nc21 [Example 37, 5-methyl-3-[1-(1-propyl)butyl]-N-(2,4,6-trimethylphenyl)-3H-1,2,3-triazolo[4,5-d]pyrimidin-7-amine]	143 to 144.5 °C
COCCn1nnc2c(Nc3c(C)cc(C)cc3C)nc(C)nc21 [Example 38, 3-(2-methoxyethyl)-5-methyl-N-(2,4,6-trimethylphenyl)-3H-1,2,3-triazolo[4,5-d]pyrimidin-7-amine]	171.5 to 173.5 °C
CCCC(CCC)n1nnc2c(Nc3ccc(Br)cc3C)nc(C)nc21 [Example 40, N-(2-Methyl-4-bromophenyl)-3-[1-(1-propyl)butyl]-5-methyl-3H-1,2,3-triazolo[4,5-d]pyrimidin-7-amine]	126.5 to 128 °C
CCC(CC)n1nnc2c(Nc3ccc(C(C)C)cc3Br)nc(C)cc21 [Example 221, N-[2-bromo-4-(1-methylethyl)phenyl]-1-(1-ethylpropyl)-6-methyl-1H-1,2,3-triazolo[4,5-c]pyridin-4-amine]	144 to 145 °C
CCC(CC)n1nnc2c(Nc3c(Br)cc(OC)cc3OC)nc(C)cc21 [Example 222, N-(2-bromo-4,6-dimethoxyphenyl)-1-(1-ethylpropyl)-6-methyl-1H-1,2,3-triazolo[4,5-c]pyridin-4-amine]	166 to 167 °C
CCCC(CCC)n1nnc2c(Nc3c(Br)cc(OC)cc3OC)nc(C)cc21 [Example 224, N-(2-bromo-4,6-dimethoxyphenyl)-6-methyl-1-(1-propylbutyl)-1H-1,2,3-triazolo[4,5-c]pyridin-4-amine]	140 to 141 °C
CCCC(CCC)n1nnc2c(Nc3c(Cl)cc(OC)cc3OC)nc(C)cc21 [Example 225, N-(2-chloro-4,6-dimethoxyphenyl)-6-methyl-1-(1-propylbutyl)-1H-1,2,3-triazolo[4,5-c]pyridin-4-amine]	157 to 158 °C
